Data as given in article PMC7504348 (Molecules, 2020).
Like-named read-outs stand apart in the source and are kept apart here.

What was measured:
β-secretase (BACE-1) = biological target: T1, β-secretase (BACE-1) (Homo sapiens, UniProt P56817); assay: biochemical; conditions: reported with SD
T1 construct: purchased Sigma–Aldrich
Method: β-secretase (BACE-1) Activity Detection Kit (Fluorescent) was purchased from Sigma–Aldrich and used to determine the effect of the synthesized chalcones on β-secretase activity. The assay was carried out according to the manufacturer’s protocol. The enzyme solution (0.3 units/uL, 2 μL) was reacted with the 50 μM of the substrate (7-methoxycumarin- 4-acetyl-(Asn670, Lue671)-amyloid β/A4 precursor protein 770 fragment 667–676-(2,4-dinitrophenyl))Lys-Arg-Arg amide trifluoroacetate salt and sulfated polysaccharide samples (2–5 mg/mL) in a fluorescence assay buffer in different wells. Baseline readings were measure immediately on a Hitachi F-7000 (excitation: 320 nm; emission: 405 nm) fluorescence spectrophotometer and repeated after 2 h incubation at 37 °C. […] The method was as described earlier.

[1] = biological target: T2, acetylcolinesterase from electric eel (Type VI) (Electrophorus electricus, UniProt O42275); assay: biochemical; conditions: reported with SD; assayed in triplicate; read-out: AChE IC50
T2 construct: purified acetylcolinesterase from electric eel (Type VI); tissue Type VI; host or cells: electric eel
Method: The assay was performed in 96-well microtiter plates in the same condition for both chalcones and control substance. 25 µL of 100 mM sodium phosphate buffer pH 8, 25 µL of sample and 25 µL acetylcholinesterase solutions containing 0.54 U/mL were mixed in each well of the plate and allowed to incubate for 15 min at 25 °C. Subsequently, 25 µL of a solution of ATCI (15 mM, dissolved in water) and 125 µL of 3 mM DTNB (5,5’-dithio-bis-nitro benzoic acid) were added. The absorbance at 405 nm was recorded during the first 5 min of the reaction. […] Percentages (%) of AChE inhibitions of tested compounds were calculated from the absorbance values as indicated in Equation (1):% I = [(A0E − A0) − (Ac − A0C)]/(A0E − A0)(1) where I is the percent inhibition of acetylcholinesterase; A0E is the absorbance value of the control blank sample with enzyme; A0 is the absorbance value of blank sample; Ac is the absorbance value of the tested sample; A0C is the absorbance value of blank test sample.
The method was as described earlier.

AChE = conditions: dataset for 2D-QSAR model, Ellman's method, galantamine as reference; cited from earlier work
[2] = pIC50 = −logIC50, read-out: BACE-1 pIC50 Observed (converted)

T1 sequence (P56817 46-501): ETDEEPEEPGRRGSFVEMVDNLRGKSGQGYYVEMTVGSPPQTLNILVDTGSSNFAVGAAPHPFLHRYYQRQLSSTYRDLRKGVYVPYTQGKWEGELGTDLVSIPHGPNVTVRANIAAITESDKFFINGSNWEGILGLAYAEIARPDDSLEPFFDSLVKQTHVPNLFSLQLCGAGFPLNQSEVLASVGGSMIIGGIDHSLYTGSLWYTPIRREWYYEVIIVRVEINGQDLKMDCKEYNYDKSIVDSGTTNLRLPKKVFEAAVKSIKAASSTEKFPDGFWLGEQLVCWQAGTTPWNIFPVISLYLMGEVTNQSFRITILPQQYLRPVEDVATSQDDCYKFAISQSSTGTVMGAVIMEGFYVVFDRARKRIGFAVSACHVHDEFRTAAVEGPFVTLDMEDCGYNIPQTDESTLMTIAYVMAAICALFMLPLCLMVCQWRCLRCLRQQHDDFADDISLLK
T2 sequence (O42275 24-633): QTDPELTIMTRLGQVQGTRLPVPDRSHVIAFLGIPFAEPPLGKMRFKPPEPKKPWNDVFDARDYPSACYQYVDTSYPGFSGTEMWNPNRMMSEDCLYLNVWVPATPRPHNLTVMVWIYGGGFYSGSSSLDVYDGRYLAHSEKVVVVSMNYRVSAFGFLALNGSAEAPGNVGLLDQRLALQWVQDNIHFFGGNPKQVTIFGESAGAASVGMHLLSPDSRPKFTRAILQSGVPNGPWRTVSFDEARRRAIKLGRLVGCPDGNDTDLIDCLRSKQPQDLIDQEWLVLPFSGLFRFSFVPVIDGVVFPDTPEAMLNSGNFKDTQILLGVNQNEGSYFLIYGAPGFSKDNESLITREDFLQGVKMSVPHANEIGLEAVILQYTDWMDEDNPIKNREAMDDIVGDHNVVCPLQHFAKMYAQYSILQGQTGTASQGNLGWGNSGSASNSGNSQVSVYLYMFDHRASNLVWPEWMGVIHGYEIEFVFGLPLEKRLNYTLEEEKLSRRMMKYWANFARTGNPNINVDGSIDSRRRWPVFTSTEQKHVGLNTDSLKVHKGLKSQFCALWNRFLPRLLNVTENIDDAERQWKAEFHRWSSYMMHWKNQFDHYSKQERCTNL

SMILES	IC50 (β-secretase (BACE-1); [2])	IC50 (β-secretase (BACE-1); read-out: BACE-1 IC50)	IC50 [1]	pIC50 (AChE dataset, Table S4) (AChE)
CN(C)CCCN1c2ccccc2Sc2ccc(C(=O)/C=C/c3ccccc3)cc21 [AC1, (E)-1-(10-(3-(dimethylamino)propyl)-10H-phenothiazin-2-yl)-3-phenylprop-2-en-1-one]	6.31 µM	6.34 ± 0.46 µM	33.9 ± 1.45 µM	–
COc1cccc(/C=C/C(=O)c2ccc3c(c2)N(CCCN(C)C)c2ccccc2S3)c1 [AC2, (E)-1-(10-(3-(dimethylamino)propyl)-10H-phenothiazin-2-yl)-3-(3-methoxyphenyl)prop-2-en-1-one]	3.02 µM	3 µM	30.9 ± 2.1 µM	–
COc1ccc(/C=C/C(=O)c2ccc3c(c2)N(CCCN(C)C)c2ccccc2S3)cc1 [AC3, (E)-1-(10-(3-(dimethylamino)propyl)-10H-phenothiazin-2-yl)-3-(4-methoxyphenyl)prop-2-en-1-one]	4.47 µM	4.48 ± 0.4 µM	11.5 ± 1.29 µM	–
COc1cc(/C=C/C(=O)c2ccc3c(c2)N(CCCN(C)C)c2ccccc2S3)cc(OC)c1OC [AC4, (E)-1-(10-(3-(dimethylamino)propyl)-10H-phenothiazin-2-yl)-3-(3,4,5-trimethoxyphenyl)prop-2-en-1-one]	0.155 µM	0.16 ± 0.03 µM	3.63 ± 0.61 µM	–
CN(C)CCCN1c2ccccc2Sc2ccc(C(=O)/C=C/c3ccc(Cl)cc3)cc21 [AC5]	1.23 µM	1.24 ± 0.12 µM	60.3 ± 1.84 µM	–
CN(C)CCCN1c2ccccc2Sc2ccc(C(=O)/C=C/c3ccc(Cl)cc3Cl)cc21 [AC6]	0.501 µM	0.5 µM	20 ± 1.57 µM	–
CN(C)CCCN1c2ccccc2Sc2ccc(C(=O)/C=C/c3c(F)cccc3Cl)cc21 [AC7]	0.447 µM	0.45 ± 0.04 µM	40.7 ± 2.48 µM	–
CN(C)CCCN1c2ccccc2Sc2ccc(C(=O)/C=C/c3ccccc3Cl)cc21 [AC8]	2.95 µM	2.97 ± 0.05 µM	15.8 ± 1.08 µM	–
CN(C)CCCN1c2ccccc2Sc2ccc(C(=O)/C=C/c3ccc(F)cc3)cc21 [AC9, (E)-1-(10-(3-(dimethylamino)propyl)-10H-phenothiazin-2-yl)-3-(4-fluorophenyl)prop-2-en-1-one]	3.72 µM	3.72 ± 0.21 µM	25.1 ± 0.83 µM	–
CN(C)CCCN1c2ccccc2Sc2ccc(C(=O)/C=C/c3cccc(Br)c3)cc21 [AC10]	2 µM	1.99 ± 0.21 µM	24.6 ± 1.09 µM	–
CN(C)CCCN1c2ccccc2Sc2ccc(C(=O)/C=C/c3ccccc3C(F)(F)F)cc21 [AC11]	0.398 µM	0.4 µM	186 ± 4.52 µM	–
CN(C)CCCN1c2ccccc2Sc2ccc(C(=O)/C=C/c3ccc(N(C)C)cc3)cc21 [AC12]	0.347 µM	0.35 ± 0.04 µM	1.1 ± 0.24 µM	–
CN(C)CCCN1c2ccccc2Sc2ccc(C(=O)/C=C/c3ccc(OCc4ccccc4)cc3)cc21 [AC13]	3.02 µM	3.03 ± 0.21 µM	11.8 ± 0.63 µM	–
COc1cc(/C=C/c2ccc(OCCCCCCN3CCCCC3)cc2)cc(OC)c1 [CHEMBL3133245]	–	–	–	5.36
COc1cc(/C=C/c2ccc(OCCCCCCN3CCCCC3C)cc2)cc(OC)c1 (centres unmarked) [CHEMBL3133246]	–	–	–	5.45
COc1cc(/C=C/c2ccc(OCCCCCCN3CCC(O)CC3)cc2)cc(OC)c1 [CHEMBL3133247]	–	–	–	4.81
COc1cc(/C=C/c2ccc(OCCCCCCN3CCOCC3)cc2)cc(OC)c1 [CHEMBL3133248]	–	–	–	4.66
COc1cc(/C=C/c2ccc(OCCCN(C)Cc3ccccc3)cc2)cc(OC)c1 [CHEMBL3133250]	–	–	–	4.29
COc1ccccc1NC(=O)Nc1nc(-c2cc3ccccc3o2)cs1 [CHEMBL3617362]	–	–	–	4.22
O=C(Nc1nc(-c2cc3ccccc3o2)cs1)Nc1ccccc1[N+](=O)[O-] [CHEMBL3617367]	–	–	–	4.38
O=C(Nc1nc(-c2cc3ccccc3o2)cs1)Nc1ccccc1F [CHEMBL3617370]	–	–	–	4.51
O=C(Nc1ccc(F)cc1)Nc1nc(-c2cc3ccccc3o2)cs1 [CHEMBL3617372]	–	–	–	4.26
O=C(Nc1ccc(Cl)c(Cl)c1)Nc1nc(-c2cc3ccccc3o2)cs1 [CHEMBL3617375]	–	–	–	4.28
COc1ccc(NC(=O)Nc2nc(-c3cc4cc(Br)ccc4o3)cs2)cc1 [CHEMBL3617380]	–	–	–	4.49
Cc1ccc(NC(=O)Nc2nc(-c3cc4cc(Br)ccc4o3)cs2)cc1 [CHEMBL3617381]	–	–	–	4.49
O=C(Nc1ccccc1)Nc1nc(-c2cc3cc(Br)ccc3o2)cs1 [CHEMBL3617382]	–	–	–	4.63
O=C(Nc1ccc(F)cc1)Nc1nc(-c2cc3cc(Br)ccc3o2)cs1 [CHEMBL3617388]	–	–	–	4.45
COc1ccc(NC(=O)Nc2nc(-c3cc4cc([N+](=O)[O-])ccc4o3)cs2)cc1 [CHEMBL3617393]	–	–	–	4.47
O=C(Nc1ccc(F)cc1)Nc1nc(-c2cc3cc([N+](=O)[O-])ccc3o2)cs1 [CHEMBL3617396]	–	–	–	4.39
O=C(Nc1ccc(Cl)cc1)Nc1nc(-c2cc3cc([N+](=O)[O-])ccc3o2)cs1 [CHEMBL3617397]	–	–	–	4.52
